The record followed here is a melting point compilation (Tetko et al.; mined from patent text by program, amines drawn as free bases though some values may be those of a salt).

The melting point is the temperature, or range, at which the solid turns liquid. As for `Cn1nc(Br)c2c(=O)n3c(nc21)SCC3`, the melting point fell in the range of 205 to 206 °C.

Regarding `O=C1CC(/C=C/c2ccccc2)=Nc2ccccc2N1Cc1ccccc1`, the melting point is 150 to 151 °C. With `CCC(=O)C1=C(O)CC(c2ccc(Oc3cccc(S(C)(=O)=O)c3)cc2)CC1=O` (configuration not stated) the figure was 110 to 114 °C; with `CCOC(CC)=C1SC(=S)N(c2ccccc2)C1=O`, 178 to 181 °C; with `CN1CCN(c2cc(F)cc3c(=O)cc(C(=O)Nc4ccc(N5CCN(C(=O)OC(C)(C)C)CC5)cc4)oc23)CC1`, 219 to 220 °C. With `C=C1N(c2cccc3ccccc23)C(=O)OC12CCN(Cc1ccccc1)CC2` the figure was 130 to 131 °C; with `COC(=O)c1c(-c2ccc(OC)cc2)sc2cc(OC)ccc12`, 85.4 to 86.6 °C; with `CCCOc1ccc2nc(NC(=O)OC)sc2c1`, 178 to 180 °C. With `COc1cccc(Sc2cccc(F)c2C#N)c1` the figure was 99 to 100 °C; with `Cc1ccn(-c2ccc(S(C)(=O)=O)cc2)c1-c1ccc(OC(F)F)cc1`, 98 to 99 °C; with `CCCCCCCCCCCCS(=O)(=O)N1CCCSC1=C(Br)[N+](=O)[O-]`, 70 to 71 °C. For `CC(C)(C)OC(=O)C(N)c1ccc(C(=O)O)cc1[N+](=O)[O-]` (configuration not stated), the melting point is 124 to 126 °C. With `Cc1c(CCC(=O)O)cc(C(C)(C)C)c(O)c1C`, the melting point lay within 191 to 193 °C.

The compound `CCNC(=O)c1ccc2c(c1)Nc1ccccc1S2` returned a melting point of 150 to 151 °C. In turn, `C#CCc1[nH]c(C)c2c1CN=C(c1ccccc1F)c1cc(Cl)ccc1-2` yielded a melting point of 179 to 180 °C.

On to `Cc1c(C)c2c(c(C)c1OCc1ccccn1)C(c1ccc(C(C)C)cc1)C(C)(C)O2` (configuration not stated), for which the melting point fell in the range of 88 to 89 °C.

As to `COc1cc2c(cc1O)CCCN(Cc1cc(OC)c(OC)c(OC)c1)C2`, the melting point was 46 to 48 °C. The same measure for `CC1(C(F)(F)F)CC(=O)C(C(=O)c2ccc(C(F)(F)F)cc2[N+](=O)[O-])C(=O)N1` (configuration not stated): 164 to 166 °C; for `CCN(C1CC(C)(C)Oc2ccc(OCCCCC(=O)NCCO)cc21)S(C)(=O)=O` (configuration not stated): 88 to 90 °C. With `Cc1oc(-c2ccco2)nc1COc1ccc(COc2ccccc2CC(=O)O)cc1` the figure was 167 to 168 °C; with `CCN(CC)CCNC(=O)c1cc(Cl)nc2ccc(I)cc12`, 106 to 108 °C. With `O=C1COc2cc(F)c(N3C(=O)C4=C(CCCC4)C3=O)cc2N1Cc1ccon1` the figure was 206 to 210 °C; with `CC(=CCO)c1ccc(C2CCCCCCC2)cc1`, 40 to 44 °C; with `CCCOc1ccccc1-c1ncc(C(=O)N(C)C)c(=O)[nH]1`, 104 to 105 °C. As for `CN(C(CCn1c(=O)cc(Cl)[nH]c1=O)C(=O)NO)S(=O)(=O)c1ccc(Oc2cccc(F)c2)cc1` (configuration not stated), the melting point is 147 to 148 °C. The same measure for `CCOC(=O)c1cc(-c2ccc(-c3ccco3)cc2)n(-c2ccc(S(C)(=O)=O)cc2)n1`: 181 °C. `Nc1cccc(-c2ccc(CCN3CCN(C(=O)Oc4ccccc4)CC3)cc2)n1` gave a melting point of 102 to 104 °C. The same measure for `CC(=O)Nc1ccc(C=CC(=O)c2ccc(OCC=C(C)C)cc2O)cc1`: 150 to 152 °C. Turning to `CC(=Cc1ccc(OCCCNc2ccc(Cl)cc2)cc1)C(=O)O`, the melting point lay within 188 to 193 °C. With `O=C(O)COc1ccc2cc(-c3oc4ccccc4c3CCC3CCCC3)ccc2c1Br` the figure was 155 to 156 °C; with `CCN(CC)CCCCC1CCN(C(=O)N2c3ccccc3C(=O)Nc3cccnc32)CC1`, 126 to 127 °C.

`CCOC(=O)CSc1nc(Nc2ccc(OC)c(Cl)c2)cc(-c2ccccc2)n1` showed a melting point of 155 °C. `O=c1c2c(c3ccccc3n1-c1ccccc1)OCC2` displayed a melting point of 195 to 197 °C. The same measure for `NC(=O)Nc1ccc(CCOCc2ccccc2-c2ccccc2)cc1`: 143 to 144 °C; for `COc1ccc2c(c1)C1CCN(C)C(C1)N2C` (configuration not stated): 72 to 73.5 °C; for `CCOC(=O)CC(=O)c1cc2cc(F)c(Cl)cc2nc1Cl`: 112 to 114 °C.

In the case of `CCO[C@H]1c2ccc3c(nc(C)n3C)c2N[C@H](c2ccccc2)[C@H]1O`, the melting point was found to be 170 °C.

In turn, `NCc1ccc2c(c1)C(=O)c1ccccc1C2=O` gave a melting point of 170 to 178 °C. `CNC(=O)C1=CN=C(N2CCN(C)CC2)CC1c1ccccc1C` (racemic) had a melting point of 137 to 138 °C.

Take `CCOC(=O)c1ccc(C(=O)N(C)C)cc1S(=O)(=O)NC(C)(C)C`: the melting point lay in the range of 101 to 102 °C. The same measure for `CCOC(=O)C=C1CCC(n2nc(-c3c(-c4ccccc4)nn4ccccc34)ccc2=O)CC1` (configuration not stated): 166 to 168 °C; for `COc1cc(N2CCC(N3CCN(C)CC3)CC2)ccc1-c1nc2c(N[C@H]3[C@@H](C(N)=O)[C@@H]4C=C[C@H]3C4)c(Br)cnc2[nH]1`: 185 to 195 °C. With `CC12CCC(C1)C1(C)Oc3ccccc3C21C` (configuration not stated) the figure was 68 °C; with `OCc1cccc(-c2cnc3cnc(-c4ccc(O)cc4)nc3c2)c1`, 232 °C. The same measure for `O=C(c1ccc(Cl)cc1)c1c(N2C(=O)c3ccccc3C2=O)sc(Br)c1CO`: 170 to 172 °C; for `CC(=Cc1cc(O)c(O)c([N+](=O)[O-])c1)C(C)O` (configuration not stated): 102 to 104 °C; for `N#Cc1ccc(N2CCC(CCCO)CC2)c2ccccc12`: 114 to 115 °C. As for `N#Cc1ccc(Nc2nc(Cc3c(Cl)cccc3Cl)cc(NC(=O)CN3CCCCC3)n2)cc1`, the melting point lay in the range of 175 to 180 °C.

Compound `CC(C)(C(=O)C=Cc1ccc(Cl)cc1Cl)C1OCCO1` had a melting point of 92 to 93 °C. With `O=C(O)C1CSC(c2ccccc2-c2ccccc2)N1` (mixture of isomers) the figure was 190 °C. As to `COc1cccc(CCc2c(CCNC(=O)CCCCC(=O)NCCc3ccccc3)ccc(OC)c2OC)c1`, the melting point lay in the range of 150 to 151 °C. The same measure for `CCOCCCNC(=O)C(C)(C(C)C)C(C)C`: 30 °C; for `CC(C)Cn1c(-c2c(F)cccc2F)c(Br)nc(Br)c1=O`: 125 to 126 °C. With `O=C(CCC(O)=NO)c1cccs1` the figure was 133 to 138 °C; with `CC(=O)NCC1CC1c1cccc2nc(C)sc12` (configuration not stated), 96 to 98 °C; with `Cc1ccc(-n2ncc(-c3ccc(S(C)(=O)=O)cc3)c(-c3ccc(F)cc3)c2=O)cc1`, 190 to 192 °C.

For `[N-]=[N+]=Nc1nc(C(F)(F)F)nc(-c2ccccc2)c1-c1ccccc1`, the melting point is 126 to 128 °C.

For the compound `Cc1ccc(S(=O)(=O)N2CC3=C(CNCC3)C2)cc1`, the melting point amounted to 201 °C. Turning to `O=c1c(Nc2cccc(C(F)(F)F)c2)c(Nc2ccc(Br)cc2-c2nnn[nH]2)c1=O`, the melting point is 150 to 165 °C.

In the case of `CCOC(=O)N1CC(C)N(C(C)C(O)(Cn2cncn2)c2ccc(F)cc2F)CC1C` (configuration not stated), the melting point was 57 to 59 °C. The same measure for `O=C(Nc1ccc(Br)c(Br)c1[N+](=O)[O-])C(F)(F)F`: 107 to 109 °C; for `CCOC(=O)CCNC(=O)CNC(=O)c1csc(NC(=O)NCc2ccccc2)n1`: 187 °C; for `CCC1CCC(=NO)C=C1c1ccc(OCC(=O)O)c(Cl)c1Cl` (configuration not stated): 88 to 90 °C. The same measure for `COc1cc(C(=N)N)ccc1O`: > 240 °C.

With `CC1(C)CCC(C)(C)c2cc(C(F)C(=O)O)ccc21` (configuration not stated), the melting point fell in the range of 127 to 128 °C. The same measure for `O=[N+]([O-])c1ccc(N2CCN(CCCCCCCCCCCO)CC2)cc1`: 118 °C. The same measure for `CCC1(CC)OC(c2ccc(S(C)(=O)=O)cc2)=C(Br)C1=O`: 130 to 131 °C.

`O=C(NC(=O)c1c(F)cccc1F)Nc1ccc(Oc2cccc3ccccc23)nc1` yielded a melting point of 224 °C.

For the compound `CCCCCc1c(C(C)(C)O)nc(C(C)C)c(CO)c1-c1ccc(F)cc1`, the melting point was 180 to 182 °C. The compound `CN1C(=O)N(CCN2C(=O)N(C)C(O)C2O)C(O)C1O` (configuration not stated) came in with a melting point of 158 to 161 °C.

On to `CN(C)C(=O)Sc1ccc(C(=O)c2ccc([N+](=O)[O-])cc2)cc1`, for which the melting point lay within 198 to 199 °C. The same measure for `O=C(Nc1ccc(S(=O)(=O)c2ccncc2)cc1)C(O)(C(F)(F)F)C(F)(F)F`: 235 to 237 °C; for `CN(C)NC(=O)c1ccc(-c2ccc(Cl)cc2)o1`: 150 to 152 °C. The same measure for `N#Cc1ccc(Cc2ccc(OCC3CCCCC3)cc2)cc1`: 104 to 106 °C; for `CCc1nc2c(C)cc(C)nc2n1Cc1ccc(C(Cc2nnn[nH]2)c2ccc(OC)cc2)cc1` (configuration not stated): 96 to 99 °C. In turn, `CCCCNc1cc(CNCc2cccc(O)c2)cc(S(N)(=O)=O)c1Oc1ccccc1` yielded a melting point of 174 to 175 °C. With `CC(C)Oc1c(-c2ccc(S(C)(=O)=O)cc2)cnn(Cc2ccccc2)c1=O` the figure was 109 to 111 °C; with `CC(C)[C@H](NC(=O)OCc1ccccn1)C(=O)N[C@@H](Cc1ccccc1)C[C@H](OC=O)[C@H](Cc1ccccc1)NC(=O)[C@@H](NC(=O)OCc1ccccn1)C(C)C`, 206 to 207 °C; with `O=c1nc(-c2ccccc2C(F)(F)F)sc2ccccc12`, 140 °C. The same measure for `CCC(=O)Oc1ccc(N)cc1C(=O)O`: 213 to 220 °C; for `Cc1ccc(O[C@@H](Cc2ccc(O)cc2)C(=O)OCC[Si](C)(C)C)cc1`: 94 to 95 °C. The same measure for `CCCCn1c(=O)c2cn(S(=O)(=O)CCCCl)nc2n(CCCC)c1=O`: 102 to 103 °C; for `CCC(CC)Nc1c([N+](=O)[O-])cc(C)c(COC(=O)CCl)c1[N+](=O)[O-]`: 45 to 48 °C; for `CCCCCCC1CCC(c2ccc(C(=O)CC(C)=O)cc2)CC1` (configuration not stated): 74 °C. `COCCn1cc(C(=O)NCc2ccc(Cl)cc2)c(=O)c2cc(CO)sc21` showed a melting point of 193 °C. With `CC(C)(C)C(NC(=O)OCc1ccccc1)C(=O)O` (configuration not stated) the figure was 96 to 99 °C; with `Cn1nc(O)cc1C(F)F`, 115 to 119 °C.
